Data set [1] concerns endometrium. Put plainly: Endometrial histology (biopsy taken by curettage), clinical phase I-II study. Type of data set: in vivo, healthy postmenopausal female volunteers. The settings on record: 30, 60, 90 mg daily, 3 months. As for the experimental part: (§1) A clinical phase I-II study was carried out to study the effects of ospemifene on endometrial thickness, endometrial pathology, (biopsy taken by curettage as described by Vuopala et al, 1982) and cervical smear in healthy postmenopausal female volunteers in the age range 55 to 69 years. Tolerability and pharmacokinetics were also assessed. Raloxifene (60 mg daily) was used as reference. Ospemifene was given perorally at the doses of 30, 60 and 90 mg daily. […] Ospemifene was administered in gelatine capsules containing either 30, 60 or 90 mg of ospemifene.
(§2) This effect is clearly weaker than that seen with estrogen replacement therapy. […] The measured values were always smaller than 8 mm, which is considered to be a thickness which is indicative for a physiologically significant estrogenicity of SERMs like tamoxifen (Hann et al, 1997; Lahti et al, 1993).

The subject of data set [2] is urogenital atrophy.
Experimental: In this study, raloxifene (60 mg/day) or ospemifene at different doses were given to elderly female volunteers for a period of 3 months.
77 were treated with 25-30 mg, 78 with 50-60 mg, 78 with 90-100 mg and 8 with 200 mg daily dose of ospemifene. In the control groups, 47 were treated with placebo and 29 with raloxifene. […] The symptoms include both vaginal and urinary symptoms such as vaginal discomfort with irritation, itching, burning, smarting, postcoital bleeding, vulvar itching and/or malodorous discharge and leukorrhea.
Data set [3] is described as follows: Tolerability in the clinical studies. It counts as in vivo, posmenopausal women. On the procedure: as §1
Based on the present data, the optimal clinical dose is expected to be higher than 25 mg daily and lower than 100 mg daily. A particularly preferable daily dose is found in the range 30 to 90 mg. […] In addition, ospemifene decreases total and LDL cholesterol, increases HDL cholesterol, and prevents osteoporosis and early stage breast cancer.

Data set [4] has as its system endometrium. Put plainly: Thickness of the endometrium by ultrasonography, clinical phase I-II study. Type of data set: in vivo, healthy postmenopausal female volunteers. The settings on record: for increase in the thickness of the endometrium (average): 3 months, statistically not significant. As for the experimental part:
as §1, §2

Data set [5] has as its system vaginal epithelium. Nature of the data set: Cervical smear: maturity index / karyopyknosis index of the vaginal epithelium, clinical phase I-II study. The settings on record: for Change in maturity index for superficial cells (MI3 mean) / Change in maturity index for parabasal cells (MI1 mean): after 3 months; for Change in maturity index for superficial cells (MI3 mean): index 100 full estrogen, index 0 no estrogenicity; for Change in maturity index for parabasal cells (MI1 mean): index 100 no estrogenicity, index 0 full estrogen; for increase in the karyopyknosis index for superficial cells: 12 weeks; for change from baseline to post-treatment in the karyopyknosis index for superficial cells: individuals, start to 12 weeks, ospemifene 30, 60, 90 mg daily, raloxifene 60 mg daily, result in words. On the procedure: Tolerability and pharmacokinetics were also assessed. Raloxifene (60 mg daily) was used as reference. Ospemifene was given perorally at the doses of 30, 60 and 90 mg daily. There were 29 volunteers at each dose level, as well as in the raloxifene group. Ospemifene was administered in gelatine capsules containing either 30, 60 or 90 mg of ospemifene. […] The vaginal epithelium was assessed by karyopyknosis index which is a well known assessment method among the skilled persons. In this method, the vaginal fraction of the cervical smears is estimated as the percentage of the number of cells from different layers: the parabasal cell layer; the intermediate cell layer; and the superficial cell layer. Estrogenicity is seen by a shift towards superficial cell fraction. In postmenopausal women this fraction usually is close to zero and estradiol treatment increases the fraction close to 100. Samples were taken before and after the treatment (at 3 months).
Table 1. […] (MI 1: index 100 no estrogenicity; index 0 full estrogen, and MI 3: index 100 full estrogen; index 0 no estrogenicity).

Each structure is given as a SMILES string.

Consider `OCCOc1ccc(/C(=C(/CCCl)c2ccccc2)c2ccccc2)cc1` [Ospemifene, (deaminohydroxy)toremifene], for which the “malignant findings in the endometrium” value in data set [1] is reported as “no malignant findings”. Besides, the “estrogenic effect on endometrial histology” value in data set [1] (clearly weaker than with estrogen replacement therapy) is given as “weak estrogenic effect”. Also, the vaginal atrophy entry in data set [2] (30, 60 and 90 mg daily, 3 months, elderly female volunteers) was “significant decrease in vaginal atrophy”. Besides, in data set [2] (spontaneous reports of some subjects, 25-200 mg daily, 241 women treated), the “symptoms associated with urogenital atrophy (vaginal and urinary)” value is listed as “alleviation of the symptoms associated with urogenital atrophy”. Besides, the tolerability result in data set [3] was “excellent tolerability”. The figures for the “increase in the thickness of the endometrium (average)” value in data set [4] (30 mg daily), in data set [4] (60 mg daily) and in data set [4] (90 mg daily) were 0.2 mm, 0.5 mm and 0.5 mm, respectively. Moreover, in data set [4] (all measured values, 30, 60, 90 mg daily), the “thickness of the endometrium, measured values” is listed as “smaller than 8 mm”. For the same compound, the results for the “Change in maturity index for superficial cells (MI3 mean)” value in data set [5] (30 mg daily perorally), in data set [5] (60 mg daily perorally) and in data set [5] (90 mg daily perorally) were “+12.4”, “+5.5” and “+12.5”, respectively. In addition, the “Change in maturity index for parabasal cells (MI1 mean)” value is on record as -40 in data set [5] (30 mg daily perorally), -26 in data set [5] (60 mg daily perorally) and -48 in data set [5] (90 mg daily perorally). The “estrogenic effect in the cervical smear” value in data set [5] (30, 60, 90 mg daily, 3 months) is listed as “weak but statistically significant estrogenic effect”. Also, in data set [5] (30, 60, 90 mg daily, 3 months), the “pathological changes in cervical smear samples” value is given as “No pathological changes”. Also, the “increase in the karyopyknosis index for superficial cells” value in data set [5] (individual cases, all ospemifene groups (30, 60, 90 mg daily), all cases except one) is less than 40; in data set [5] (one case in the 90 mg group), 45. Besides, the “change from baseline to post-treatment in the karyopyknosis index for superficial cells” value in data set [5] is “slight increases”.
Consider `O=C(c1ccc(OCCN2CCCCC2)cc1)c1c(-c2ccc(O)cc2)sc2cc(O)ccc12` [Raloxifene, reference compound], for which, in data set [5] (60 mg daily perorally), the “Change in maturity index for superficial cells (MI3 mean)” value was -0.3 and the “Change in maturity index for parabasal cells (MI1 mean)” value is on record as -2. Besides, in data set [5], the “change from baseline to post-treatment in the karyopyknosis index for superficial cells” value is reported as “no one in the raloxifene group (Fig. 1D) had a significant change”.

For the origin of these results see patent EP1509215B1, “TREATMENT OR PREVENTION OF UROGENITAL ATROPHY AND ITS SYMPTOMS IN WOMEN” (Hormos Medical Ltd., priority 2002, dated 2003).
